Measurements taken from US9227971B2, “Pyrazolo[1,5-a]pyrimidine compounds as mTOR inhibitors” (Merck Sharp & Dohme Corp., priority 2010, dated 2016).
pIC50: −log10 of the molar value.

Legend:
[1] = test system: phosphorylated AKT Ser473 (pAKT S473), mTORC2 activity, PC3 cells; assay: mTOR target engagement assay, immunofluorescent cell-based, pAKT S473 readout (mTORC2 activity); conditions: Homo sapiens, PC-3, PC3 cells, compound treatment ninety minutes at 37° C.
Procedure, shortened: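 After blocking, cells were stained overnight at 4 °C with anti-pAKT S473 antibody, then a fluorescent secondary; inhibition was read as reduced fluorescence intensity.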

[2] = test system: phosphorylated 4E-BP1 Thr37/46 (p4E-BP1 Thr37/46), mTORC1 activity, PC3 cells; assay: mTOR target engagement assay, immunofluorescent cell-based, p4E-BP1 Thr37/46 readout (mTORC1 activity); conditions: Homo sapiens, PC-3, PC3 cells, compound treatment ninety minutes at 37° C.; read-out: p4E-BP1 Thr37/46 IC50
Procedure, shortened: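 Cell-based immunofluorescence in PC3 cells: serially diluted compounds (0.25% DMSO, 5% FBS) applied for ninety minutes at 37° C before fixation and overnight 4° C staining of p4E-BP1 Thr37/46. Untreated DMSO wells set maximal phosphorylation; IC50 obtained by logistic fitting.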

SMILES | pIC50 [1] | pIC50 [2]
CC(=O)c1c([C@@H]2C[C@H]3CC[C@@H](C2)N3C(=O)c2nnc[nH]2)nc2c(-c3cnc(C(C)(C)O)c(Cl)c3)cnn2c1N [Compound 1.1.181, 1-(5-((1R,3s,5S)-8-(4H-1,2,4-triazole-3-carbonyl)-8-azabicyclo[3.2.1]octan-3-yl)-7-amino-3-(5-chloro-6-(2-hydroxypropan-2-yl)pyridin-3-yl)pyrazolo[1,5-a]pyrimidin-6-yl)ethanone] | 7.00 to 9.00 | 7.00 to 9.00
COc1cc(F)cc2cc(-c3cnn4c(N)c(C(C)=O)c([C@@H]5C[C@H]6CC[C@@H](C5)N6C(=O)c5nnc[nH]5)nc34)cnc12 [Compound 1.1.182, 1-(5-((1R,3r,5S)-8-(4H-1,2,4-triazole-3-carbonyl)-8-azabicyclo[3.2.1]octan-3-yl)-7-amino-3-(6-fluoro-8-methoxyquinolin-3-yl)pyrazolo[1,5-a]pyrimidin-6-yl)ethanone] | 7.00 to 9.00 | 7.00 to 9.00
COc1cc(F)cc2cc(-c3cnn4c(N)c(C(C)=O)c([C@@H]5C[C@H]6CC[C@@H](C5)N6C(=O)CO)nc34)cnc12 [Compound 1.1.183, 1-((1R,3r,5S)-3-(6-acetyl-7-amino-3-(6-fluoro-8-methoxyquinolin-3-yl)pyrazolo[1,5-a]pyrimidin-5-yl)-8-azabicyclo[3.2.1]octan-8-yl)-2-hydroxyethanone] | 7.00 to 9.00 | 6.00 to 7.00
CC(=O)c1c([C@@H]2C[C@H]3CC[C@@H](C2)N3C(=O)c2nnc[nH]2)nc2c(-c3cncc(CO)c3)cnn2c1N [Compound 1.1.184, 1-(5-((1R,3s,5S)-8-(4H-1,2,4-triazole-3-carbonyl)-8-azabicyclo[3.2.1]octan-3-yl)-7-amino-3-(5-(hydroxymethyl)pyridin-3-yl)pyrazolo[1,5-a]pyrimidin-6-yl)ethanone] | 6.00 to 7.00 | 6.00 to 7.00
CC(=O)c1c([C@@H]2C[C@H]3CC[C@@H](C2)N3C(=O)CO)nc2c(-c3ccc(-c4n[nH]c(C)c4F)nc3)cnn2c1N [Compound 1.11..107, 1-((1R,3s,5S)-3-(6-acetyl-7-amino-3-(6-(4-fluoro-5-methyl-1H-pyrazol-3-yl)pyridin-3-yl)pyrazolo[1,5-a]pyrimidin-5-yl)-8-azabicyclo[3.2.1]octan-8-yl)-2-hydroxyethanone] | 6.00 to 7.00 | 6.00 to 7.00
CC(=O)c1c([C@@H]2C[C@H]3CC[C@@H](C2)N3C(N)=O)nc2c(-c3ccc(-c4ccc(F)cc4)nc3)cnn2c1N [Compound 1.11..170, (1R,3s,5S)-3-(6-acetyl-7-amino-3-(6-(4-fluorophenyl)pyridin-3-yl)pyrazolo[1,5-a]pyrimidin-5-yl)-8-azabicyclo[3.2.1]octane-8-carboxamide] | 7.00 to 9.00 | 7.00 to 9.00
Nc1c(Br)c([C@@H]2C[C@H]3CC[C@@H](C2)N3C(=O)c2nc[nH]n2)nc2c(-c3ccc(-c4ccccc4)nc3)cnn12 [Compound 2.1, ((1R,3s,5S)-3-(7-amino-6-bromo-3-(6-phenylpyridin-3-yl)pyrazolo[1,5-a]pyrimidin-5-yl)-8-azabicyclo[3.2.1]octan-8-yl)(1H-1,2,4-triazol-3-yl)methanone] | 6.00 to 7.00 | 7.00 to 9.00
COc1ccc(-c2ccc(-c3cnn4c(N)c(Br)c([C@@H]5C[C@H]6CC[C@@H](C5)N6C(=O)CO)nc34)cn2)cc1CO [Compound 2.2, 1-((1R,3s,5S)-3-(7-amino-6-bromo-3-(6-(3-(hydroxymethyl)-4-methoxyphenyl)pyridin-3-yl)pyrazolo[1,5-a]pyrimidin-5-yl)-8-azabicyclo[3.2.1]octan-8-yl)-2-hydroxyethanone] | 7.00 to 9.00 | 6.00 to 7.00
COc1ccc(-c2ccc(-c3cnn4c(N)c(Br)c([C@@H]5C[C@H]6CC[C@@H](C5)N6C(=O)[C@@H](C)O)nc34)cn2)cc1CO [Compound 2.3, (R)-1-((1R,3S,5S)-3-(7-amino-6-bromo-3-(6-(3-(hydroxymethyl)-4-methoxyphenyl)pyridin-3-yl)pyrazolo[1,5-a]pyrimidin-5-yl)-8-azabicyclo[3.2.1]octan-8-yl)-2-hydroxypropan-1-one] | 7.00 to 9.00 | 7.00 to 9.00
COc1ccc(-c2ccc(-c3cnn4c(N)c(Br)c([C@@H]5C[C@H]6CC[C@@H](C5)N6C(=O)c5nnc[nH]5)nc34)cn2)cc1F [Compound 2.4, ((1R,3s,5S)-3-(7-amino-6-bromo-3-(6-(3-fluoro-4-methoxyphenyl)pyridin-3-yl)pyrazolo[1,5-a]pyrimidin-5-yl)-8-azabicyclo[3.2.1]octan-8-yl)(4H-1,2,4-triazol-3-yl)methanone] | 6.00 to 7.00 | 6.00 to 7.00
COc1ccc(-c2ccc(-c3cnn4c(N)cc([C@@H]5C[C@H]6CC[C@@H](C5)N6C(=O)c5nnc[nH]5)nc34)cn2)cc1F [Compound 2.5, ((1R,3s,5S)-3-(7-amino-3-(6-(3-fluoro-4-methoxyphenyl)pyridin-3-yl)pyrazolo[1,5-a]pyrimidin-5-yl)-8-azabicyclo[3.2.1]octan-8-yl)(4H-1,2,4-triazol-3-yl)methanone] | 6.00 to 7.00 | 5.00 to 6.00
COc1ccc(-c2ccc(-c3cnn4c(N)cc([C@@H]5C[C@H]6CC[C@@H](C5)N6C(=O)c5nnc[nH]5)nc34)cn2)cc1CO [Compound 2.6, ((1R,3s,5S)-3-(7-amino-3-(6-(3-(hydroxymethyl)-4-methoxyphenyl)pyridin-3-yl)pyrazolo[1,5-a]pyrimidin-5-yl)-8-azabicyclo[3.2.1]octan-8-yl)(4H-1,2,4-triazol-3-yl)methanone] | 6.00 to 7.00 | 6.00 to 7.00
COc1ccc(-c2ccc(-c3cnn4c(N)cc([C@@H]5C[C@H]6CC[C@@H](C5)N6C(=O)CO)nc34)cn2)cc1CO [Compound 2.7, 1-((1R,3s,5S)-3-(7-amino-3-(6-(3-(hydroxymethyl)-4-methoxyphenyl)pyridin-3-yl)pyrazolo[1,5-a]pyrimidin-5-yl)-8-azabicyclo[3.2.1]octan-8-yl)-2-hydroxyethanone] | 6.00 to 7.00 | 6.00 to 7.00
Nc1cc([C@@H]2C[C@H]3CC[C@@H](C2)N3C(=O)CO)nc2c(-c3ccc(-c4ccccc4)nc3)cnn12 [Compound 2.8, 1-((1R,3s,5S)-3-(7-amino-3-(6-phenylpyridin-3-yl)pyrazolo[1,5-a]pyrimidin-5-yl)-8-azabicyclo[3.2.1]octan-8-yl)-2-hydroxyethanone] | 6.00 to 7.00 | 5.00 to 6.00
Cn1cnc(-c2ccc(-c3cnn4c(N)cc([C@@H]5C[C@H]6CC[C@@H](C5)N6C(=O)c5nnc[nH]5)nc34)cn2)n1 [Compound 2.10, ((1R,3s,5S)-3-(7-amino-3-(6-(1-methyl-1H-1,2,4-triazol-3-yl)pyridin-3-yl)pyrazolo[1,5-a]pyrimidin-5-yl)-8-azabicyclo[3.2.1]octan-8-yl)(4H-1,2,4-triazol-3-yl)methanone] | < 5.00 | < 5.00
Nc1cc([C@@H]2C[C@H]3CC[C@@H](C2)N3C(=O)c2nnc[nH]2)nc2c(-c3ccc4[nH]ncc4c3)cnn12 [Compound 2.12, ((1R,3s,5S)-3-(7-amino-3-(1H-indazol-5-yl)pyrazolo[1,5-a]pyrimidin-5-yl)-8-azabicyclo[3.2.1]octan-8-yl)(1H-1,2,4-triazol-5-yl)methanone] | < 5.00 | < 5.00
